Results on one compound are retold here after US4394390A, “Nasal dosage forms of propranol” (University of Kentucky Research Foundation, priority 1980, dated 1983).

Data set [1] in a line: Crossover study of propranolol plasma levels after nasal, intravenous and oral administration in dogs.
A short description of data set [2]: Bioavailability of propranolol from nasal solution vs oral and intravenous administration in rats (blood levels, AUC). The conditions noted are these: rat, FIG. 1.
Data set [3] is described as follows: in vivo. Conditions: dog.
The nature of data set [4]: in vivo. Conditions: rat.
For data set [5] the following is noted: cited from earlier work.
For data set [6] the following is noted: rat, in vivo.

One may read the bioavailability as dose-corrected exposure relative to a reference, in per cent. A word on the Tmax: it is the time at which the peak concentration occurs.

Structures are written as SMILES.

Consider `CC(C)NCC(O)COc1cccc2ccccc12` (centres unmarked) [propranolol, 1-(isopropylamino)-3-(1-naphthyloxy)-2-propanol], for which the “plasma levels after intravenous and nasal administration compared” value in data set [1] (dog, 20 mg, nasal vs I.V., FIG. 2) is “virtually identical”. For the same compound, the “plasma levels after oral administration” value in data set [1] (dog, 20 mg, oral compared with I.V. and nasal, FIG. 2) is on record as “considerably lower plasma levels”. Besides, the “absorption from the nasal mucosa into systemic blood” value in data set [1] (nasal, conclusion from dog study and rat study) is reported as “rapidly absorbed from the nasal mucosa into systemic blood without the first pass metabolism”. The “blood level after nasal administration compared with intravenous administration” value in data set [2] (nasal 1 mg vs I.V. 1 mg) is recorded as “identical to the blood level after intravenous administration”. The “absorption from the nasal mucosa” value in data set [2] (nasal) is listed as “very rapidly absorbed from the nasal mucosa”. Also, the “blood level after oral administration” value in data set [2] (oral, same dosage level (1 mg), compared with nasal and I.V.) was “considerably lower blood levels”. The bioavailability at 8 h was 96.7% in the data set “in vivo [3]” (AUC(Nasal)/AUC(I.V.)) and 8.9% in “in vivo [3]” (po, AUC(P.O.)/AUC(I.V.)). The bioavailability in “in vivo [3]” (bioavailability from the nasal route relative to the intravenous route) was 99.1%; in “in vivo [3]” (po, bioavailability from the oral route relative to the intravenous route) it was 7.4%. Moreover, the Tmax in “in vivo [4]” was at most 5 min. The bioavailability at 4 h in “in vivo [4]” (Ratio (AUC nasal vs I.V.)) was 99.6%; in “in vivo [4]” (po, Ratio (AUC oral vs I.V.)), 17.9%; in the data set “in vivo [4]” (po, oral bioavailability, AUC ratio (oral/I.V.)×100), around 15%. In data set [5] (human, intravenous, 10 mg, same five subjects), the “variation of plasma levels among subjects” value is given as “varied only two fold”. In data set [5] (human, oral, 80 mg, five subjects), the “variation of peak plasma levels among subjects” value is “varied seven fold”. Moreover, the “bioavailability (ratio of AUC of 80 mg oral dose and 10 mg I.V. dose)” value in data set [5] (human, oral, lowest in some subjects) is listed as 16%. Further, in data set [5] (oral dosage forms), the “absorption from oral dosage forms” value is “inefficiently and variably absorbed from oral dosage forms”. Also, in data set [6], the “dependence of area under the blood level curve on dose” value is listed as “directly proportional to the dose”. For the same compound, in data set [6] (240 min), the “oral bioavailability, AUC ratio (oral/nasal)×100” value is listed as “about 15%”.
